Reference: patent US9456997B2, “Selective inhibition of β1-adrenergic receptors for the treatment of pediatric heart failure” (THE REGENTS OF THE UNIVERSITY OF COLORADO, A BODY CORPORATE, priority 2010, dated 2016)
“Also recorded” adds a separate entry of the source. Where two headings read alike, the source gives them in different places.

Columns and labels:
[1] = tested on: Akt; experiment: Phosphorylation of Akt in young mouse hearts by Western blot; assay type: in vivo; conditions: young mice, heart, one week of treatment, versus placebo
Description: (§1) Western blots were performed as previously described by the inventors. Antibodies for total and phosphorylated PLB were diluted 1:15000 and antibodies for total and phosphorylated Akt were diluted 1:1000 in 1×TBS (20 mM Tris 500 mM NaCl pH 7.5) containing 3% BSA and 0.1% tween and incubated with the blot overnight at 4° C.
(§2) To address hypothesis (iv) above a third study was performed in the young mice to provide evidence of the beneficial effects of exogenous β2-selective agonism with fenoterol. […] The methodology was identical to that outlined in the carvedilol and metoprolol studies above. Protein was isolated from the placebo, fenoterol and isoproterenol treated mouse hearts and phosphorylation of Akt and expression of Caspase 3 was determined to confirm the beneficial effects of fenoterol treatment.

[2] = tested on: caspase 3; experiment: Caspase 3 levels in young mouse hearts by Western blot; assay type: in vivo; conditions: young mice, heart, one week of treatment, versus placebo
Description: as §1, §2

[3] = tested on: isoproterenol challenged young and old mice; experiment: Mouse model of pediatric heart failure: cardiac growth (HW/BW) in response to isoproterenol with or without β-blocker; assay type: in vivo; conditions: for heart weight to body weight ratio (HW/BW), response to ISO: older mice; for heart weight to body weight ratio (HW/BW), response to ISO / cardiac growth response to ISO (HW/BW): isoproterenol 30 mg/kg/day 7 days, β-blocker in drinking water, versus same age ISO; for pathologic growth response to isoproterenol: isoproterenol 7 days, β-blocker via subcutaneously implanted pump
Description: (§3) Since a primary characteristic of human heart failure is endogenous catecholamine (epinephrine and norepinephrine; full β1 and β2 receptor agonists) excess, they challenged the mice with isoproterenol (an exogeous full β1 and β2 receptor agonist) for 7 days using a subcutaneous miniosmotic pump at a dose (30 mg/kg/day) that has previously been associated with cardiac hypertrophy in adult mice and has been used as a model of cardiac hypertrophy and heart failure in adult […]. Higher doses (120 mg/kg/day) for 14 days cause a dilated heart failure phenotype, providing further evidence that this is an appropriate HF model. Half the animals received the isoproterenol treatment and the other half were treated with placebo pumps filled with normal saline and vitamin C, the vehicle that the isoproterenol is dissolved in. The young and old animals were divided into 2 studies: one for carvedilol treatment and one for metoprolol treatment (the study design for each animal study is illustrated in FIG. 8). […] The amount of water consumed was measured on a daily basis and all groups consumed similar amounts of water. In a second study to further support hypothesis (i) above and provide evidence of a class effect among β1-selective antagonists, young mice were divided into 2 studies one for bisoprolol and one for nebivolol. […] After 7 days of treatment, the hearts were removed and assessed for cardiac growth in response to isoproterenol with or without the β-blocker. Protein was isolated from the hearts of young and old mice in the presence or absence of isopreterenol without any β-blocker treatment assessed for phosphorylation of phospholamban by Western blot as outlined above.

[4] = tested on: phospholamban (Ser16, Thr17); experiment: Phospholamban phosphorylation in mouse hearts by Western blot; assay type: in vivo; conditions: isoproterenol challenged versus control
Description: as §1, §3

[5] = tested on: β1 and β2 receptors; conditions: cited from earlier work; for β1 receptor selectivity: in words
[6] = tested on: HF patients (adult population); conditions: cited from earlier work
[7] = tested on: children with heart failure; conditions: Pediatric Carvedilol Trial, cited from earlier work
[8] = tested on: adult mouse models of myocardial infarction; conditions: adult mouse models of myocardial infarction (Ahmet, 2004; 2005; 2008); cited from earlier work

Question: With `CC(C)NCC(O)c1ccc(O)c(O)c1` (stereo not shown) [Isoproterenol, isoproterenol] as the molecule, how does the “phosphorylation of Akt” value [1] read?
Answer: Its value is “decreased”.

Question: And the “caspase 3 levels” value [2]?
Answer: Its value is “increased”.

Question: What about the “pathologic cardiac growth produced by the agonist” value ([3]; young and old mice, 30 mg/kg/day for 7 days, subcutaneous miniosmotic pump) of the same molecule?
Answer: Its value is “significant pathologic cardiac growth”.

Question: And the “growth response elicited by the agonist” value ([3]; young mice, placebo (no β-blocker) treated animals, bisoprolol and nebivolol cohorts)?
Answer: Its value is “significant growth response”.

Question: And the “phospholamban phosphorylation at serine 16” value ([4]; old (adult) mice)?
Answer: Its value is “dephosphorylated; also recorded: lower”.

Question: And the “phospholamban phosphorylation at threonine 17” value ([4]; old (adult) mice)?
Answer: Its value is “dephosphorylated; also recorded: lower”.

Question: And the “phospholamban phosphorylation at serine 16” value ([4]; young mice)?
Answer: The value was “unchanged”.

Question: What about the “phospholamban phosphorylation at threonine 17” value ([4]; young mice) of the same molecule?
Answer: Its value is “unchanged”.

Question: Which results are given for `COc1ccccc1OCCNCC(O)COc1cccc2[nH]c3ccccc3c12` (stereo not shown) [Carvedilol]?
Answer: blockade of β2 receptors relative to β1 receptors ([5]; β2 over β1): up to 7 times; Mortality Benefit, RR reduction ([6]; CAPRICORN trial): 23% RR; Mortality Benefit, RR reduction ([6]; COPERNICUS trial): 35% RR; Mortality Benefit, RR reduction ([6]; US Coreg HF trial): 65% RR; heart weight to body weight ratio (HW/BW), response to ISO [3]: lower; cardiac growth response to ISO (HW/BW) ([3]; young mice): no benefit; cardiac growth response to ISO (HW/BW) ([3]; young mice, listed as Coreg): no influence; Outcome (clinical benefit) ([7]; listed as carvedilol): lack of clinical benefit; Outcome (clinical benefit) [7]: no clinical benefit

Question: What does the source list for `CC(Cc1ccc(O)cc1)NCC(O)c1cc(O)cc(O)c1` (stereo not shown) [Fenoterol, fenoterol]?
Answer: phosphorylation of Akt [1]: induced; phosphorylation of Akt ([1]; listed as fenoterol): increasing; caspase 3 levels ([2]; listed as fenoterol): maintaining only basal levels; also recorded: did not induce; myocardial remodeling and function [8]: improvements in myocardial remodeling and function

Question: Which β1 receptor selectivity [5] does the source give for `OC(CNCC(O)C1CCc2cc(F)ccc2O1)C1CCc2cc(F)ccc2O1` (stereo not shown) [Nebivolol] here?
Answer: The β1 receptor selectivity was “higher selectivity than Metoprolol”.

Question: What about the “Mortality or Hospitalization Benefit, RR reduction” value ([6]; SENIORS trial) of the same molecule?
Answer: Its value is 14% RR.

Question: And the “pathologic growth response to isoproterenol” value ([3]; young mice)?
Answer: Its value is “significantly suppressed”.

Question: What about the “pathologic growth response to isoproterenol” value ([3]; young mice, listed as nebivolol) of the same molecule?
Answer: Its value is “significant blunting”.

Question: Which results are given for `CC(C)NCC(O)COc1ccc(COCCOC(C)C)cc1` (stereo not shown) [Bisoprolol]?
Answer: β1 receptor selectivity [5]: higher selectivity than Metoprolol; Mortality Benefit, RR reduction ([6]; CIBIS trial): 32% RR; pathologic growth response to isoproterenol ([3]; young mice): significantly suppressed; pathologic growth response to isoproterenol ([3]; young mice, listed as bisoprolol): significant blunting

Question: Which β1 receptor selectivity [5] does the source give for `COCCc1ccc(OCC(O)CNC(C)C)cc1` (stereo not shown) [Metoprolol] here?
Answer: Its β1 receptor selectivity is “selectively blocks the β1 receptor”.

Question: What about the “Mortality Benefit, RR reduction” value ([6]; MERIT-HF trial) of the same molecule?
Answer: Its value is 34% RR.

Question: And the “heart weight to body weight ratio (HW/BW), response to ISO” value [3]?
Answer: The value was “lower”.

Question: And the “cardiac growth response to ISO (HW/BW)” value ([3]; young mice)?
Answer: Its value is “blunted”.

Question: What about the “cardiac growth response to ISO (HW/BW)” value ([3]; young mice, listed as metoprolol) of the same molecule?
Answer: Its value is “demonstrated benefit”.
